{"source": "patent US20240335464A1", "about": "“ADMINISTRATION OF STING AGONIST, CHECKPOINT INHIBITORS, AND RADIATION” (Takeda Pharmaceutical Company Limited, priority 2020, published 2024)", "test_system": "EMT6 mouse breast carcinoma syngeneic tumor", "test": "Study 3: EMT6 orthotopic (mammary fat pad) syngeneic tumor model, time-to-progression analysis", "type": "in vivo, female BALB/c mice", "method": "Study 3: EMT6 is a mouse breast carcinoma cell line. EMT6 mouse syngeneic tumor model was generated by orthotopic inoculation with 1.0×10^6 EMT6 cells (cell suspension) in seven to eight week old female BALB/c mice (Envigo Corp., Indianapolis, IN) in the mammary fat pad. When the mean tumor volume reached approximately 110 mm^3, the animals were randomized into one vehicle control and eight treatment groups (n=8/group). Mice were then treated with Compound No. 14, anti-mouse PD-1 (anti-mPD-1) (clone RMP1-14), and/or three fraction doses of 8 Gy of Radiation (8 Gy×3), or the respective control agents (PBS, isotype control antibody, and/or mock radiation) in the following combinations over an 11-day period. • Group 1: vehicle (PBS)+isotype control+mock radiation • Group 2: Compound No. 14 (1 mg/kg)+isotype control+mock radiation • Group 3: Compound No. 14 (0.25 mg/kg)+isotype control+mock radiation • Group 4: vehicle+anti-mPD-1+mock radiation • Group 5: vehicle+isotype control+radiation (8 Gy×3) • Group 6: Compound No. 14 (1 mg/kg)+isotype control+radiation (8 Gy×3) • Group 7: vehicle+anti-mPD-1+radiation (8 Gy×3) • Group 8: Compound No. 14 (1 mg/kg)+anti-mPD-1+radiation (8 Gy×3) • Group 9: Compound No. 14 (0.25 mg/kg)+anti-mPD-1+radiation (8 Gy×3)\nTumor growth and body weight were measured three times per week during the treatment and post-treatment periods. Mice were humanely euthanized once they had reached their humane endpoint. Mice with complete regressions were evaluated until day 74 or day 108.\nStudy 3: A 0.1 mg/mL stock solution of Compound No. 14 was formulated in PBS and administered IV based on exact animal body weight on each day of treatment, using a dosing volume of 10 mL/kg body weight. Final doses received were 0.25 mg/kg or 1.0 mg/kg. Compound No. 14 was administered on a Q3D schedule for 3 doses (Days 12, 15 and 18) in single agent treatment group and in combination treatment groups. Dose formulation of Compound No. 14 was prepared once and utilized for all three dosing days.\nFormulated anti-mPD-1 and isotype control were stored at 4 degree Celsius until subsequent dosing on Days 15 and 18. Anti-mPD-1 or isotype control was administered concurrent with Compound No. 14 or vehicle control on a Q3D schedule for 3 doses (Days 12, 15 and 18) in single agent treatment groups and in combination treatment groups.\nRadiation treatment for Study 3 was performed using focal beam radiation with volumetric image guidance from computed tomography scans SARRP (Small Animal Radiation Research Platform) irradiator (Xstrahl Inc. Suwanee, Ga). Animals received 2.42 Gy/min of radiation and approximately 3.3 min was needed to reach 8 Gy dose delivery. Animals received 8 Gy radiation on days 8, 9 and 10, with the last radiation dose given two days prior to the initiation of dosing with Compound No. 14 and/or anti-mPD-1 or relevant controls on Day 12. Animals were anesthetized during imaging and radiation treatment using 1-2% Isoflurane. For repeated daily radiation treatments, the same treatment plan was applied and adjusted for changes in animal positioning or target alteration over time.\nTumors were measured three times weekly using vernier calipers. Tumor volumes were calculated using standard equation: V=W^2×L/2, where V=volume, W=width, and L=length for the tumor. When mean tumor volumes reached approximately 60 mm^3 for Study 1, 75 mm^3 for Study 2, and 110 mm^3 for Study 3, mice were randomized into eight groups (n=10/group) in Studies 1 and 2, and nine groups (n=8/group) in Study 3. These groups were then dosed with vehicle (PBS), Compound No. 14, Radiation, anti-mPD-1 or isotype control, or combinations of these agents as described in Tables 1a, 2a, and 3a. Tumor size and body weight were measured three times a week for the duration of each study. […]", "data": [{"molecule": "Nc1ncnc2c1ncn2[C@@H]1O[C@@H]2COP(=O)(S)O[C@@H]3[C@H](O)[C@@H](COP(=O)(S)O[C@H]2[C@H]1F)O[C@H]3n1cc(F)c2c(=O)[nH]cnc21", "note": "(stereo partly shown) [Compound No. 14]", "values": [{"measurement": "Synergy Hazard Ratio (Weibull)", "setting": "Combination Gr 6 [Compound No. 14 (1 mg/kg) + isotype control + radiation (8 Gy × 3)] vs Gr 2 and Gr 5", "value": 0.00194}, {"measurement": "Mice remaining on study beyond day 53", "setting": "Gr 2: Compound No. 14 (1 mg/kg) + isotype control + mock radiation", "value": "no mice"}, {"measurement": "HR (Weibull), time to progression, pairwise comparison to vehicle group (Gr 1)", "setting": "Gr 2: Compound No. 14 (1 mg/kg) IV Q3D×3 + isotype control + mock radiation, TTP = tumor volume reaching 1000 mm^3", "value": 0.485}, {"measurement": "HR (Weibull), time to progression, pairwise comparison to vehicle group (Gr 1)", "setting": "Gr 3: Compound No. 14 (0.25 mg/kg) IV Q3D×3 + isotype control + mock radiation", "value": 0.37}, {"measurement": "HR (Weibull), time to progression, pairwise comparison to vehicle group (Gr 1)", "setting": "Gr 6: Compound No. 14 (1 mg/kg) + isotype control + radiation (8 Gy×3)", "value": 0.00091}, {"measurement": "Mice remaining on study as tumor-free survivors at end of study (Day 108)", "setting": "Group 6: Compound No. 14 (1 mg/kg) + isotype control + 8 Gy×3 Radiation, n=8/group", "value": 5, "unit": "mice"}, {"measurement": "Combination effect on TTP (synergy, in words)", "setting": "Group 6: Compound No. 14 (1 mg/kg) and 8 Gy×3 Radiation with isotype control", "value": "Statistically significant synergy"}]}]}
